Test results from ChEMBL document CHEMBL1139966, “ERbeta ligands. Part 6: 6H-Chromeno[4,3-b]quinolines as a new series of estrogen receptor beta-selective ligands” (Bioorg Med Chem Lett, 2007).

Organism: Homo sapiens
Experiment: Selectivity for human ERalpha over ERbeta

SMILES	Ratio IC50
Oc1ccc2c(c1)OCc1c-2nc2ccc(O)cc2c1Cl	27
CCc1cc(-c2ccc(O)cc2)nc2ccc(O)cc12	12
COc1cccc(-c2c3c(nc4ccc(O)cc24)-c2ccc(O)cc2OC3)c1	10
COc1ccc(-c2c3c(nc4ccc(O)cc24)-c2ccc(O)cc2OC3)cc1	6
Oc1ccc2c(c1)OCc1c-2nc2ccc(O)cc2c1-c1cccc(Cl)c1	4
C#Cc1cc(-c2ccc(O)cc2)nc2ccc(O)cc12	20
Oc1ccc2c(c1)OCc1c-2nc2ccc(O)cc2c1Br	16
Oc1ccc2c(c1)OCc1c-2nc2ccc(O)cc2c1-c1ccc(Cl)cc1	15
N#Cc1cccc(-c2c3c(nc4ccc(O)cc24)-c2ccc(O)cc2OC3)c1	8
Oc1ccc(-c2cc(Cl)c3cc(O)ccc3n2)cc1	46
Oc1ccc2c(c1)OCc1c-2nc2ccc(O)cc2c1-c1ccc(C(F)(F)F)cc1	16
C#Cc1c2c(nc3ccc(O)cc13)-c1ccc(O)cc1OC2	12
N#Cc1c2c(nc3ccc(O)cc13)-c1ccc(O)cc1OC2	16
CCc1c2c(nc3ccc(O)cc13)-c1ccc(O)cc1OC2	14
C=Cc1c2c(nc3ccc(O)cc13)-c1ccc(O)cc1OC2	24
N#Cc1ccc(-c2c3c(nc4ccc(O)cc24)-c2ccc(O)cc2OC3)cc1	16
